Assay results published in US7524840B2, “7,8-disubstituted pyrazolobenzodiazepines” (Hoffmann-La Roche Inc., priority 2004, dated 2009).

Experiments:
[1] = tested on: FGF-stimulated HUVEC; experiment: FGF-stimulated HUVEC proliferation assay (BrdU); assay type: cell-based; conditions: Homo sapiens, BrdU labeling, FGF 5 ng per mL, 24 hour exposure, read-out: Antiproliferative Activity FGF-stimulated HUVEC Assay IC50
Protocol: (§1) The antiproliferative activity of test compounds of this invention in cell-based assays was evaluated by BrdU assay using the BrdU kit (Roche Biochemicals 1-647-229). Human umbilical vein endothelial cells (HUVEC, Clonetics CC-2519) were cultured in EGM-2 (Clonetics CC-3162) medium and seeded at 10000 cells per well in a volume of 200 μL of EGM-2 (Clonetics CC-3162) media in a 96-well flat bottom plates (Costar 3595) overnight. After 24 hours of growth at 37° C. with 5% CO2, the incubation media was removed slowly by aspiration, and the content of each well was washed with 300 μL pre-warmed EBM-2 (Clonetics CC-3156) containing 50 μg per mL of gentamycin and 50 ng per mL of amphotercin-B (Clonetics CC-4083). Subsequently, the remaining media was again aspirated and replaced with 160 μL per well of serum starvation media (EBM-2 supplemented with 1% heat inactivated FBS (Clonetics CC-4102), 50 μg per mL gentamycin and 50 ng per mL of amphotercin-B (Clonetics CC-4083), 10 units per mL of Wyeth-Ayerst heparin (NDC0641-0391-25), and 2 mM L-glutamine (GIBCO 25030-081). After serum starving the cells for 24 hours, 20 μL of test compound at 10× test concentration in serum starvation medium with 2.5% DMSO was added to the appropriate wells. The control wells contained 20 μL of serum starvation medium with 2.5% DMSO. Plates were returned to the incubator for 2 hours. After pre-incubating the cells with the test compounds for 2 hours, 20 μL of growth factors at 10X assay concentration diluted in serum starvation media, FGF at 50 ng per mL, or VEGF (R&D systems 293-VE) at 200 ng per mL were added. The final concentration of FGF in the assay was 5 ng per mL and the final concentration of VEGF in the assays was 20 ng per mL. The growth factor free control wells had 20 μL per well of serum starvation media with the same amount of BSA as the wells with growth factors. The plates were returned to the incubator for an additional 22 hours.
(§2) After 24 hour exposure to the test compounds, the cells were labeled with BrdU (Roche Biochemicals 1-647-229), by adding 20 μL per well of BrdU labeling reagent that has been diluted (1:100) in serum starvation medium. The plates were then returned to the incubator for 4 hours. The labeling medium was removed by draining the medium onto paper towels. […] The plates were read at 450 nm with reference wavelength of 650 nm. The percent inhibition for each test compound was calculated by subtracting the absorbency of the blank (no cells) wells from all wells, then subtracting the division of the average absorbency of each test duplicate by the average of the controls from 1. […] The IC50 is determined from the linear regression of a plot of the logarithm of the concentration versus percent inhibition.

[2] = tested on: VEGF-stimulated HUVEC; experiment: VEGF-stimulated HUVEC proliferation assay (BrdU); assay type: cell-based; conditions: Homo sapiens, BrdU labeling, VEGF 20 ng per mL, 24 hour exposure, read-out: Antiproliferative Activity VEGF-stimulated HUVEC Assay IC50
Protocol: as §1, §2

[3] = molecular target: T1, KDR (Homo sapiens, UniProt P35968); experiment: KDR kinase HTRF assay; assay type: biochemical
T1 construct: EEE tag
Protocol: To determine inhibition of KDR and FGFR, kinase assays were conducted using an HTRF (Homogeneous Time Resolved Fluorescence) assay. This assay is described in A. J. Kolb et. al., Drug Discovery Today, 1998, 3(7), p 333.
Prior to kinase reaction, recombinant EEE-tagged KDR was activated in the presence of activation buffer (50 mM HEPES, pH 7.4, 1 mM DTT, 10% glycerol, 150 mM NaCl, 0.1 mM EDTA, 26 mM MgCl2, and 4 mM ATP). The enzyme was incubated at 4° C. for 1 hour.
Kinase activity assays were performed in 96-well polypropylene plates (Falcon) with a total volume of 90 μL in each well. Each well contained 1 μM KDR substrate (Biotin-[…]), 1 nM activated KDR, and a test compound with one of 8 assay concentrations ranging from […] to […] (1:5 serial dilution). […] The reaction was incubated at 37° C. for 30 minutes. To stop the KDR reaction, 72 μL of reaction mixture was transferred into a STOP plate containing 18 μL of revelation buffer (20 mM EDTA, 50 mM HEPES, pH 7.4, 0.02% BSA, 10 nM Eu-labelled anti-pY antibody (final conc. 2 nM), and 100 nM streptavidin (final conc. 20 nM)). After mixing, 35 μL of solution was transferred into duplicate wells of a 384-well black plate (Costar), and read at 615/665 nm on a Wallac Victor 5 reader.
Compound IC50 values were determined from duplicate sets of data, and calculated by using Excel and fitting data to equation Y=[(a−b)/{1+(X/c)^d]+b, where a and b are enzyme activity in the presence of no test inhibitor compound and an infinite amount of inhibitor test compound, respectively, c is the IC50 and d is the hill constant of the compound response. The IC50 value is the concentration of test compound that reduces by 50% the enzyme activity under the test conditions described.

T1 sequence (P35968 20-1356, species assumed): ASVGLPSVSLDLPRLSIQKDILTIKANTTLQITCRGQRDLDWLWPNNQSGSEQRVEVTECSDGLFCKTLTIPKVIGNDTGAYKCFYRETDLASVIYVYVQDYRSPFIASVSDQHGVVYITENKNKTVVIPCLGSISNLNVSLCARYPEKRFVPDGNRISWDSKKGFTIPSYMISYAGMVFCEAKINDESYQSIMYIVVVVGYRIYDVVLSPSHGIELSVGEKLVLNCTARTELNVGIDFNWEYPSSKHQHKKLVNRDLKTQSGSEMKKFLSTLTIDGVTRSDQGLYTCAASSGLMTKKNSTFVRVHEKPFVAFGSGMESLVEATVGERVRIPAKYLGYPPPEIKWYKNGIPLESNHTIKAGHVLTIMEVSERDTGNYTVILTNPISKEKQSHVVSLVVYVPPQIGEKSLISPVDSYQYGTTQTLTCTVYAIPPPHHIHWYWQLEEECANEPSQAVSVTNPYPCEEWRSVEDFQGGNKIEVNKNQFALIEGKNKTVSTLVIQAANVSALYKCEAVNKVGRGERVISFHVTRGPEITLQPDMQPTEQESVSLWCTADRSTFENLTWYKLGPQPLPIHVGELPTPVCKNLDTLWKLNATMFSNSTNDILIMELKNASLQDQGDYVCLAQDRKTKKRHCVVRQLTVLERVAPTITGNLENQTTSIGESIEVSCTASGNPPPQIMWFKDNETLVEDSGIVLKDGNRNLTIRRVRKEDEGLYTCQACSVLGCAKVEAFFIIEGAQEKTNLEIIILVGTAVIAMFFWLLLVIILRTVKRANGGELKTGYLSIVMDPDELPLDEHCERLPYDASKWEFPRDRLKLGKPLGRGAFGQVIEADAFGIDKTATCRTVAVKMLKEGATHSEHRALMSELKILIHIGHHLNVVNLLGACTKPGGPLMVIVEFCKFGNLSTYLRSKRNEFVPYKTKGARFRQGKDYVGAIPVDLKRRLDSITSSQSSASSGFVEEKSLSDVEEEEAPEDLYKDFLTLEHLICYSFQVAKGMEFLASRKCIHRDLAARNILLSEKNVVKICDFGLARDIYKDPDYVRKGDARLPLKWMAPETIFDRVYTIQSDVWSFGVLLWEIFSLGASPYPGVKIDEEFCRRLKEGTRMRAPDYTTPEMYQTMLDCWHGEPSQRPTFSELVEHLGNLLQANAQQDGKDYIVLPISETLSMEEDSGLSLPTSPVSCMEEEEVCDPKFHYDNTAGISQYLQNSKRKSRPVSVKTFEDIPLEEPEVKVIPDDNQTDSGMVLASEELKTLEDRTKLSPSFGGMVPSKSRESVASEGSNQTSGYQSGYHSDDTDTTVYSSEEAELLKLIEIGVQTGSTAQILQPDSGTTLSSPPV

COc1cc2c(cc1F)C(c1ccccc1Cl)=Nc1c(n[nH]c1C)N2 [IVa, 5-(2-chlorophenyl)-1,2-dihydro-7-fluoro-8-methoxy-3-methyl-pyrazolo[3,4-b][1,4]benzodiazepine]
IC50 [1]: 100 nM | IC50 [2]: 23 nM | IC50 [3]: 10 nM
